From US12503436B2, “Compounds and compositions for treating conditions associated with STING activity” (NOVARTIS PHARMA AG, priority 2021, dated 2025)

Each compound was assayed against STING (Homo sapiens, UniProt Q86WV6, G230A/H232R/R293Q/R71H) (assay: STING reporter assay in THP1-Dual KO-IFNAR2 cells (2′3′cGAMP stimulation, luciferase reporter)). Details: 15 μM 2′3′cGAMP stimulation, 24 h, read-out: Pharmaron, THP1_IFNAR2 STING 24 h Luci Normalized: GeoMean EC50.
Format: cell-based
Method in brief: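 THP1-Dual KO-IFNAR2 cells (2×10E6 cells/mL) with compounds at 0.0017-100 μM final, stimulated with 15 μM final 2′3′cGAMP delivered by Lipofectamine 2000; 24 h at 37 °C. Luciferase in supernatant read with QUANTI-Luc Plus; EC50 derived from luminescence.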

STING, sequence (Q86WV6 whole entry R71H/G230A/H232R/R293Q): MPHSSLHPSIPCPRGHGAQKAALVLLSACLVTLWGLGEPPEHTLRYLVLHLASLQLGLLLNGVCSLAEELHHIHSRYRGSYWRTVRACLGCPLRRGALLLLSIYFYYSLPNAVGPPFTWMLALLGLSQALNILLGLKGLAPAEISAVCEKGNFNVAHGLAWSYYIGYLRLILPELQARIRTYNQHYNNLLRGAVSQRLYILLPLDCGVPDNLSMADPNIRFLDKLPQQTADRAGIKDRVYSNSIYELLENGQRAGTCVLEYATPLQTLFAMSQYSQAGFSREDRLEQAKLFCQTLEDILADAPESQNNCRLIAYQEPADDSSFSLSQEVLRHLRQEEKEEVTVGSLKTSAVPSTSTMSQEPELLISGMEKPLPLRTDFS

Row | SMILES | EC50 [nM]
1 | CC(=O)Nc1c[nH]c2c(C)cc(COCc3ccc(C(F)(F)F)cc3)cc12 [Compound 272, N-(7-methyl-5-(((4-(trifluoromethyl)benzyl)oxy)methyl)-1H-indol-3-yl)acetamide] | 1000 to 5000
2 | O=C(Nc1c[nH]c2ccc(CCOc3ccc(C(F)(F)F)cc3)cc12)C1CC1(F)Cl (stereo not drawn) [Compound 175, 2-chloro-2-fluoro-N-(5-(2-(4-(trifluoromethyl)phenoxy)ethyl)-1H-indol-3-yl)cyclopropane-1-carboxamide] | 200 to 1000
3 | CC(=O)Nc1c[nH]c2ccc(OCCn3ccc(C(F)(F)F)n3)cc12 [Compound 196, N-(5-(2-(3-(trifluoromethyl)-1H-pyrazol-1-yl)ethoxy)-1H-indol-3-yl)acetamide] | 5000 to 100000
4 | CC(=O)Nc1c[nH]c2ccc(O[C@H]3C[C@@H](c4ccc(C(F)(F)F)cc4)C3)cc12 [Compound 102, N-(5-(cis-3-(4-(trifluoromethyl)phenyl)cyclobutoxy)-1H-indol-3-yl)acetamide] | 40 to 200
5 | CC(C)(C)OC(=O)N1CC(C)(C(=O)Nc2c[nH]c3ccc(O[C@H]4C[C@H](c5ccc(C(F)(F)F)cc5)C4)cc23)C1 [Compound 568, tert-butyl 3-methyl-3-((5-(trans-3-(4-(trifluoromethyl)phenyl)cyclobutoxy)-1H-indol-3-yl)carbamoyl)azetidine-1-carboxylate] | 200 to 1000
6 | O=C(Nc1c[nH]c2ccc(OCCc3ccc(C(F)(F)F)nc3)cc12)C1COC1 [Compound 373, N-(5-(2-(6-(trifluoromethyl)pyridin-3-yl)ethoxy)-1H-indol-3-yl)oxetane-3-carboxamide] | 1000 to 5000
7 | O=C(Nc1c[nH]c2ccc(O[C@H]3C[C@@H](c4ccc(C(F)(F)F)cc4)C3)cc12)C1CC1(F)Cl (stereo partly drawn) [Compound 575, 2-chloro-2-fluoro-N-(5-(cis-3-(4-(trifluoromethyl)phenyl)cyclobutoxy)-1H-indol-3-yl)cyclopropane-1-carboxamide] | 200 to 1000
8 | CO[C@H]1C[C@H](C(=O)Nc2c[nH]c3ccc(OCc4ccc(C(F)(F)F)cc4)cc23)C1 [Compound 300, trans-3-methoxy-N-(5-((4-(trifluoromethyl)benzyl)oxy)-1H-indol-3-yl)cyclobutane-1-carboxamide] | 40 to 200
9 | C[C@H]1C[C@@H]1C(=O)Nc1c[nH]c2ccc(OCCc3ccc(C(F)(F)F)cc3)cc12 [Compound 206, (1S,2S)-2-methyl-N-(5-(4-(trifluoromethyl)phenethoxy)-1H-indol-3-yl)cyclopropane-1-carboxamide] | 40 to 200
10 | O=C(Nc1c[nH]c2ccc(OCc3ccc(C(F)(F)F)cc3)cc12)C1CC1(F)F (stereo not drawn) [Compound 330, 2,2-difluoro-N-(5-((4-(trifluoromethyl)benzyl)oxy)-1H-indol-3-yl)cyclopropane-1-carboxamide] | 200 to 1000
11 | CC1(C(=O)Nc2c[nH]c3ccc(O[C@H]4C[C@@H](c5ccc(C(F)(F)F)nc5)C4)cc23)CC1 [Compound 579, 1-methyl-N-(5-(cis-3-(6-(trifluoromethyl)pyridin-3-yl)cyclobutoxy)-1H-indol-3-yl)cyclopropane-1-carboxamide] | 200 to 1000
12 | CO[C@H]1C[C@@H](C(=O)Nc2c[nH]c3ccc(OCCc4ccc(C(F)(F)F)cc4)cc23)C1 [Compound 222, cis-3-methoxy-N-(5-(4-(trifluoromethyl)phenethoxy)-1H-indol-3-yl)cyclobutane-1-carboxamide] | 40 to 200
13 | CC(=O)Nc1c[nH]c2ccc(CC(Cc3ccc(C(F)(F)F)cc3)C(=O)O)cc12 (stereo not drawn) [Compound 532, 3-(3-acetamido-1H-indol-5-yl)-2-(4-(trifluoromethyl)benzyl)propanoic acid] | 5000 to 100000
14 | CC(C)(C)C(=O)Nc1c[nH]c2ccc(CCOc3ccc(C(F)(F)F)cc3)cc12 [Compound 389, N-(5-(2-(4-(trifluoromethyl)phenoxy)ethyl)-1H-indol-3-yl)pivalamide] | 200 to 1000
15 | O=C(Nc1c[nH]c2ccc(OCCC3CCCN(CC(F)(F)F)C3)cc12)C1CC1 (stereo not drawn) [Compound 498, N-(5-(2-(1-(2,2,2-trifluoroethyl)piperidin-3-yl)ethoxy)-1H-indol-3-yl)cyclopropanecarboxamide] | 200 to 1000
16 | CC1(C(=O)Nc2c[nH]c3ccc(OCCc4ccc(C(F)(F)F)cc4)cc23)CCC1 [Compound 235, 1-methyl-N-(5-(4-(trifluoromethyl)phenethoxy)-1H-indol-3-yl)cyclobutane-1-carboxamide] | 40 to 200
17 | CC1(C(=O)Nc2c[nH]c3ccc(OCc4ccc(C(F)(F)F)cc4)cc23)CCOC1 (stereo not drawn) [Compound 154, 3-methyl-N-(5-((4-(trifluoromethyl)benzyl)oxy)-1H-indol-3-yl)tetrahydrofuran-3-carboxamide] | 200 to 1000
18 | CC1(C(=O)Nc2c[nH]c3ccc(OCCc4ccc(C(F)(F)F)cc4)cc23)CN(CC(F)F)C1 [Compound 561, 1-(2,2-difluoroethyl)-3-methyl-N-(5-(4-(trifluoromethyl)phenethoxy)-1H-indol-3-yl)azetidine-3-carboxamide] | 40 to 200
19 | CC(=O)Nc1c[nH]c2ccc(CCOc3cnc4c(OC(F)(F)F)cccc4c3)cc12 [Compound 477, N-[5-(2-{[8-(trifluoromethoxy)quinolin-3-yl]oxy}ethyl)-1H-indol-3-yl]acetamide] | 1000 to 5000
20 | CC(=O)Nc1c[nH]c2ccc(Cc3ccc(C(F)(F)F)cc3)cc12 [Compound 128, N-(5-(4-(trifluoromethyl)benzyl)-1H-indol-3-yl)acetamide] | 200 to 1000
21 | N#C[C@H]1C[C@@H]1C(=O)Nc1c[nH]c2ccc(O[C@H]3C[C@@H](c4ccc(C(F)(F)F)cc4)C3)cc12 (stereo in doubt) [Compound 332, cis-2-cyano-N-(5-(cis-3-(4-(trifluoromethyl)phenyl)cyclobutoxy)-1H-indol-3-yl)cyclopropane-1-carboxamide] | 200 to 1000
22 | O=C(Nc1c[nH]c2ccc(OCCc3ccc(C(F)(F)F)cc3)cc12)C1CC(F)(F)C1 [Compound 249, 3,3-difluoro-N-(5-(4-(trifluoromethyl)phenethoxy)-1H-indol-3-yl)cyclobutane-1-carboxamide] | 200 to 1000
23 | CC(=O)Nc1c[nH]c2ccc(CCOc3ccc(C(F)(F)F)cc3)c(F)c12 [Compound 213, N-(4-fluoro-5-(2-(4-(trifluoromethyl)phenoxy)ethyl)-1H-indol-3-yl)acetamide] | 200 to 1000
24 | CC(=O)Nc1c[nH]c2ccc(Oc3ccc(C(F)(F)F)cc3)cc12 [Compound 124, N-(5-(4-(trifluoromethyl)phenoxy)-1H-indol-3-yl)acetamide] | 1000 to 5000
25 | CC[C@@H](O)C(=O)Nc1c[nH]c2ccc(OCC[C@@H]3C[C@@H]4CN(CC(F)(F)F)C[C@@H]4C3)cc12 [Compound 522, (R)-2-hydroxy-N-(5-(2-((3aR,5r,6aS)-2-(2,2,2-trifluoroethyl)octahydrocyclopenta[c]pyrrol-5-yl)ethoxy)-1H-indol-3-yl)butanamide] | 40 to 200
26 | O=C(Nc1c[nH]c2ccc(O[C@H]3C[C@H](c4ccc(C(F)(F)F)cc4)C3)cc12)C1(F)CC1 [Compound 489, l-fluoro-N-{5-[(1R,3R)-3-[4-(trifluoromethyl)phenyl]cyclobutoxy]-1H-indol-3-yl}cyclopropane-1-carboxamide] | 200 to 1000
27 | CC(=O)Nc1c[nH]c2ccc(CC(N)Cc3ccc(C(F)(F)F)cc3)cc12 (stereo not drawn) [Compound 517, N-(5-(2-amino-3-(4-(trifluoromethyl)phenyl)propyl)-1H-indol-3-yl)acetamide] | 5000 to 100000
